Tested on: hypoxic-ischemic brain injury
Assay: Hypoxic-ischemic brain injury in adult rats, central GPE (Experiment 3)
Assay type: in vivo, Wistar rats
Experimental: The objective of this study was to compare the effects of treatment with GPE to that of vehicle given 2 hours after a hypoxic-ischemic brain injury.
Unilateral hypoxic-ischemic injury was induced in adult 300±10 g) male Wistar rats. The rats underwent unilateral carotid ligation under light halothane anaesthesia. Following one hour recovery they were placed in an incubator at 34C at 85±5% humidity for one hour before injury. They were subjected to 10 min inhalational asphyxia (FiO2 6.0%) and maintained in the incubator for one hour after asphyxia. Two hours after the termination of the inhalation injury, a single stereotaxically controlled lateral cerebroventricular injection of either 3 μGPE (n=15) or phosphate buffered saline alone (n=15) was given. The animals were then maintained for 120 hrs, anaesthetized and the brains fixed in situ for histological assessment.
Surviving and dead neurons were discriminated with the use of a thionin/acid fuchsin staining technique [C. Williams, A. Gunn, C. Mallard, P. Gluckman Ped Res. (1990). A. Brown, J. Brierley, J. Neurol Sci, 16:59-84 (1971)]. The results are shown in FIG. 3; using a scoring technique. […] Similar to our previous study with IGF-1 the incidence of cortical infarction was lower following GPE treatment at 27% compared to the control/vehicle treated rats at 53% (Guan et al J Cereb Blood Flow Metab. 13:609-616 (1993)).
(The incidence of hippocampal damage was reduced following treatment with 3 μg GPE. The asterisk indicates a probability of under <0.05.
For this figure the columns A and B indicate the proportional loss of area (which can be extrapolated to indicate volume using the well-known principles of stereology) between the left and rights sides of the cortex of the brain, for either a control vehicle or 3 μG of GPE. Volumes were measured using computer-aided image analysis techniques. […] Neurones were counted after staining, with the aid of a microscope. […] Thus a single central injection of GPE following an asphyxial injury in the adult rat was associated with a marked improvement in outcome as assessed histologically.

NCC(=O)N1CCC[C@H]1C(=O)N[C@@H](CCC(=O)O)C(=O)O [GPE, gly-pro-glu]
incidence of hippocampal damage in the ligated hemisphere (3 μg GPE 2 hours after hypoxia, p<0.05 vs vehicle): reduced the incidence of hippocampal damage | incidence of cortical infarction (3 μg GPE lateral cerebroventricular injection 2 hours after injury, 120 hrs, vehicle 53%): 27% | number of damaged cells (FIG. 4, cortex area and live hippocampal neurones R/L) (3 μg GPE, single central injection, p 0.04): significant reduction in the number of damaged cells

— patent US6187906A, “Methods to improve neural outcome” (Aukland Uniservices Limited, priority 1998, dated 2001)
